Our source for the IC50 and Ki values is ChEMBL document CHEMBL1909046, “DrugMatrix in vitro pharmacology data”.

Data set [1] addresses T1, C-X-C chemokine receptor type 2 (Homo sapiens, UniProt P25025).
T1 sequence (P25025 whole entry): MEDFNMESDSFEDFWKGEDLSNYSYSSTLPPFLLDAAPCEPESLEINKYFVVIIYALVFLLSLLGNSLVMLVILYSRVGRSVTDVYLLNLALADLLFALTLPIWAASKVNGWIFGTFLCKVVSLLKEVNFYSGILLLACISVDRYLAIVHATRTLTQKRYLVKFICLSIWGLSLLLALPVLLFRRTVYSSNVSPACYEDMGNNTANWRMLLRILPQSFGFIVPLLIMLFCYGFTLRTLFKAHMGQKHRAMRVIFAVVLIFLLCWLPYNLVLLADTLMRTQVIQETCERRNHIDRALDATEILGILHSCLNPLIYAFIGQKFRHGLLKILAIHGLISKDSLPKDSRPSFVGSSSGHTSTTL
It is filed as cell membranes, CHO-K1, Membrane. To be noted: cho-k1.

For data set [2], the target named is 5-hydroxytryptamine receptor 2B (Homo sapiens, UniProt P41595). It is filed as cell membranes, CHO-K1, Membrane. The following applies: for IC50: cho-k1. For all read-outs here: in other assays of this panel Not Active means under 50% inhibition at 10 µM.
Chain of 5-hydroxytryptamine receptor 2B (P41595 whole entry): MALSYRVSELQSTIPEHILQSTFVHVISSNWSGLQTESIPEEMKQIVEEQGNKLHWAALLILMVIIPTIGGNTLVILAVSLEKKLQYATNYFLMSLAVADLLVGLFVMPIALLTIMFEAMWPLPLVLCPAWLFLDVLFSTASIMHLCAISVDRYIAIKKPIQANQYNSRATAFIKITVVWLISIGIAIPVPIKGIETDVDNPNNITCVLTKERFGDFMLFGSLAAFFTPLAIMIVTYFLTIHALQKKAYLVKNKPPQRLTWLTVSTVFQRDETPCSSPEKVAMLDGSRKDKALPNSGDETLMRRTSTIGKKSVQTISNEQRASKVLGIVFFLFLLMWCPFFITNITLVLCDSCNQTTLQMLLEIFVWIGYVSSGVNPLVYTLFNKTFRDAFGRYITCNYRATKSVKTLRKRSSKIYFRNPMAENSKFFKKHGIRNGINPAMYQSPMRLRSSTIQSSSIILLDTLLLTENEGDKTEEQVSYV
Data set [3] in a line: DRUGMATRIX: Phorbol Ester radioligand binding (ligand: [3H] PDBu). It is filed as cell membranes, Mus musculus, ICR, Brain, Membrane. The following applies: Not Active = under 50% inhibition at 10 µM.
Data set [4] in a line: DRUGMATRIX: Platelet-Derived Growth Factor (PDGF) radioligand binding (ligand: [125I] PDGF). It is filed as cell-based. The following applies: nih3t3; Not Active = under 50% inhibition at 10 µM.
The next data set has as its target T2, Cytochrome P450 2A6 (Homo sapiens, UniProt P11509). Note: in other assays of this panel Not Active means under 50% inhibition at 10 µM.
T2 sequence (P11509 whole entry): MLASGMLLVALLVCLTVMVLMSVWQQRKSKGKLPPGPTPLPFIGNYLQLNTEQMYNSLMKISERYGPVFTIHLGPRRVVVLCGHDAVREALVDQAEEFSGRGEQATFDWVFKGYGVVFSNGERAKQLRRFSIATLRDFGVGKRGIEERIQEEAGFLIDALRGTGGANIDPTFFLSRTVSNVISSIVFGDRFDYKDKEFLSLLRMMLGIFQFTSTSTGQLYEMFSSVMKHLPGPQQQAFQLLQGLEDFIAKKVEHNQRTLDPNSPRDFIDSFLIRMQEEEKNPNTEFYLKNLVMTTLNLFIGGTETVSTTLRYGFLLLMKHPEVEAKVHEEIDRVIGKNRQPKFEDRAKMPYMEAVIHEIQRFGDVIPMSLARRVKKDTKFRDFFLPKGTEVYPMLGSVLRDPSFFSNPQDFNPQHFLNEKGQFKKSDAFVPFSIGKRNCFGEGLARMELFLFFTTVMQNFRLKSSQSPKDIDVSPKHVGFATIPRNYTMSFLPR
To be noted: bti-tn-5b1-4.

A further data set deals with Cytochrome P450 2E1 (Homo sapiens, UniProt P05181). The following applies: bti-tn-5b1-4.
Chain of Cytochrome P450 2E1 (P05181 whole entry): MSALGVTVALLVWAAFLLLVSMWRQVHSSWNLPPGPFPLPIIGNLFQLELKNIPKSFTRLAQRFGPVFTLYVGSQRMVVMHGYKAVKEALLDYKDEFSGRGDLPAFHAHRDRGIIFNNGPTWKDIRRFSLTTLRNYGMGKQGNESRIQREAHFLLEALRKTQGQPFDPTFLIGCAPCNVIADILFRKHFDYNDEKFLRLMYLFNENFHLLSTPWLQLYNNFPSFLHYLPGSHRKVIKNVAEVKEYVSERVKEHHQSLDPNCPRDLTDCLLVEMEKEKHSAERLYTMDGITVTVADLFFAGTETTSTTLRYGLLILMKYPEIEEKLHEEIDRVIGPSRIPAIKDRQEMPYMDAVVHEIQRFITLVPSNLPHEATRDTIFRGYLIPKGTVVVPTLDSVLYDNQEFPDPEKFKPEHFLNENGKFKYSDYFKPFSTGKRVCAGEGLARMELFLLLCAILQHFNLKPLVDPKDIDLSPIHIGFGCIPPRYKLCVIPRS
A further data set concerns the target Cytochrome P450 2C9 (Homo sapiens, UniProt P11712). To be noted: bti-tn-5b1-4. Note: in other assays of this panel Not Active means under 50% inhibition at 10 µM.
A further data set has as its target T3, B2 bradykinin receptor (Homo sapiens, UniProt P30411). Note: in other assays of this panel Not Active means under 50% inhibition at 10 µM.
T3 sequence (P30411 whole entry): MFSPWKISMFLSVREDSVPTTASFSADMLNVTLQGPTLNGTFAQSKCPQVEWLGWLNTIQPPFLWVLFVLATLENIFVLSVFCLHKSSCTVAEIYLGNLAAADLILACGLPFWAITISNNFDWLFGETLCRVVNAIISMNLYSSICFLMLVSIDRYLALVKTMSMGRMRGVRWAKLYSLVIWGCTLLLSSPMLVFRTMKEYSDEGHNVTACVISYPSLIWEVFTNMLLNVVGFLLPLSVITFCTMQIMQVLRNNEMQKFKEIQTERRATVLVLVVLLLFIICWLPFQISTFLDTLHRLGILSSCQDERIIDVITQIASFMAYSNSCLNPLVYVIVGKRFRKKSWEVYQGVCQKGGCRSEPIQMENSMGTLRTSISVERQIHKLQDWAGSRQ
It is filed as cell membranes, Membrane. To be noted: chem-1.

pIC50, pKi: −log10 of the molar value.

Chain of Cytochrome P450 2C9 (P11712 whole entry): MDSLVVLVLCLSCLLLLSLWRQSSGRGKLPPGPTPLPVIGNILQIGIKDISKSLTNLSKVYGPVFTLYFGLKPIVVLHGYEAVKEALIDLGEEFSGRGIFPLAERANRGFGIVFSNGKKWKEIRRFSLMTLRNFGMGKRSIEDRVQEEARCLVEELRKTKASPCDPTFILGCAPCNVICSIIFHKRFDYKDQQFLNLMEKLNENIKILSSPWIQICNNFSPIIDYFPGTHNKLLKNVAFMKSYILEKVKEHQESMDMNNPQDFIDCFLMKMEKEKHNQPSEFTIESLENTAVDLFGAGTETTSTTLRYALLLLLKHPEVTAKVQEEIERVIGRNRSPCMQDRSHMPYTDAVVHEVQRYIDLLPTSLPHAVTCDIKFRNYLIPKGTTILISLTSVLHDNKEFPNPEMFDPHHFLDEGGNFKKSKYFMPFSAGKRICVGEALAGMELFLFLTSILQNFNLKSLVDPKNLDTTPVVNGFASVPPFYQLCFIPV

In the case of `c1ccc(Cn2ccnc2)cc1`, the IC50 result (in data set [1]; in data set [2]; in data set [3]; in data set [4]; against Cytochrome P450 2A6; against Cytochrome P450 2E1) was “Not Active” throughout. Further, the IC50 entry on Cytochrome P450 2C9 and against B2 bradykinin receptor was “Not Active” throughout. Besides, the Ki entry (in data set [3]; in data set [4]; at Cytochrome P450 2A6; on Cytochrome P450 2E1; on Cytochrome P450 2C9) was “Not Active” each time.

On to `C[N+](C)(C)CCOP(=O)([O-])OC[C@H](O)CO`, for which the IC50 entry (in data set [1]; in data set [2]; in data set [3]; in data set [4]; against Cytochrome P450 2A6; at Cytochrome P450 2E1) was “Not Active” in each case. For the same molecule, the IC50 result against Cytochrome P450 2C9 and against B2 bradykinin receptor was “Not Active” throughout. Also, the Ki entry (in data set [3]; in data set [4]; on Cytochrome P450 2A6; at Cytochrome P450 2E1; at Cytochrome P450 2C9) was “Not Active” each time.

Take `NC(=O)CN1CCCC1=O`: the IC50 entry (in data set [1]; in data set [2]; in data set [3]; in data set [4]; against Cytochrome P450 2A6; against Cytochrome P450 2E1) was “Not Active” in each case. For the same molecule, the IC50 result at Cytochrome P450 2C9 and at B2 bradykinin receptor was “Not Active” throughout. Moreover, the Ki result (in data set [3]; in data set [4]; on Cytochrome P450 2A6; on Cytochrome P450 2E1; on Cytochrome P450 2C9) was “Not Active” throughout.

Consider `OC[C@H]1OC2C3[C@@H](CO)OC(O[C@H]4[C@H](O)[C@@H](O)[C@@H](O[C@H]5[C@H](O)[C@@H](O)[C@@H](O[C@H]6[C@H](O)[C@@H](O)[C@@H](O[C@H]7[C@H](O)[C@@H](O)[C@@H](O[C@H]8[C@H](O)[C@@H](O)[C@@H](O[C@H]9[C@H](O)[C@@H](O)C(OC1[C@H](O)[C@H]2O)O[C@@H]9CO)O[C@@H]8CO)O[C@@H]7CO)O[C@@H]6CO)O[C@@H]5CO)O[C@@H]4CO)[C@H](O)[C@H]3O`, for which the IC50 entry (in data set [1]; in data set [2]; in data set [3]; in data set [4]; on Cytochrome P450 2A6; against Cytochrome P450 2E1) was “Not Active” in each case. The IC50 result against Cytochrome P450 2C9 and against B2 bradykinin receptor was “Not Active” each time. Also, the Ki entry (in data set [3]; in data set [4]; at Cytochrome P450 2A6; on Cytochrome P450 2E1; at Cytochrome P450 2C9) was “Not Active” each time.

As for `C=C(Cl)Cl` [1,1-DICHLOROETHENE], the IC50 result (in data set [1]; in data set [2]; in data set [3]; in data set [4]; against Cytochrome P450 2A6; on Cytochrome P450 2E1) was “Not Active” in each case. The IC50 entry against Cytochrome P450 2C9 and against B2 bradykinin receptor was “Not Active” throughout. In addition, the Ki entry (in data set [3]; in data set [4]; on Cytochrome P450 2A6; on Cytochrome P450 2E1; at Cytochrome P450 2C9) was “Not Active” in each case.

Broadly, the pIC50 is the IC50 on a negative log10 scale, so that one unit is a factor of ten. Usually pKi stands for the negative decadic logarithm of the Ki, by convention in mol/L. Regarding `CC(=O)Nc1ccc2c(c1)Cc1ccccc1-2` [2-ACETYLAMINOFLUORENE], the IC50 result (in data set [1]; in data set [3]; in data set [4]; against Cytochrome P450 2A6; against Cytochrome P450 2E1; on Cytochrome P450 2C9) was “Not Active” each time. Also, on B2 bradykinin receptor, the IC50 entry is “Not Active”. Also, in data set [2] (read-out: IC50), the pIC50 is 5.50. The pKi in data set [2] (read-out: Ki) was 5.70. Also, the Ki result (in data set [3]; in data set [4]; on Cytochrome P450 2A6; on Cytochrome P450 2E1; on Cytochrome P450 2C9) was “Not Active” in each case.

As for `O=C(Nc1ccc(Cl)c(Cl)c1)c1cc(Cl)cc(Cl)c1O` [3,3',4',5-TETRACHLOROSALICYLANILIDE], the IC50 result (in data set [1]; in data set [2]; in data set [3]; in data set [4]; against Cytochrome P450 2A6; against Cytochrome P450 2E1) was “Not Active” in each case. Also, the IC50 entry at Cytochrome P450 2C9 and against B2 bradykinin receptor was “Not Active” each time. In addition, the Ki result (in data set [3]; in data set [4]; on Cytochrome P450 2A6; at Cytochrome P450 2E1; at Cytochrome P450 2C9) was “Not Active” each time.

As to `O=C(O)COC(=O)Cc1ccccc1Nc1c(Cl)cccc1Cl` [ACECLOFENAC], the IC50 result (in data set [1]; in data set [2]; in data set [3]; in data set [4]; against Cytochrome P450 2A6; against Cytochrome P450 2E1) was “Not Active” in each case. For the same molecule, the IC50 entry against Cytochrome P450 2C9 and against B2 bradykinin receptor was “Not Active” each time. The Ki result (in data set [3]; in data set [4]; at Cytochrome P450 2A6; on Cytochrome P450 2E1; on Cytochrome P450 2C9) was “Not Active” throughout.

As for `CCN1C[C@]2(COC)[C@H](O)C[C@H](OC)[C@@]34[C@@H]5C[C@@]6(O)[C@H](OC(=O)c7ccccc7)[C@@H]5[C@@](OC(C)=O)([C@@H]([C@H](OC)[C@H]23)[C@@H]14)[C@@H](O)[C@@H]6OC` [ACONITINE], the IC50 entry (in data set [1]; in data set [2]; in data set [3]; in data set [4]; at Cytochrome P450 2A6; at Cytochrome P450 2E1) was “Not Active” each time. The IC50 result at Cytochrome P450 2C9 and on B2 bradykinin receptor was “Not Active” in each case. Besides, the Ki entry (in data set [3]; in data set [4]; at Cytochrome P450 2A6; on Cytochrome P450 2E1; on Cytochrome P450 2C9) was “Not Active” throughout.

With `CCO` [ALCOHOL], the IC50 entry (in data set [1]; in data set [2]; in data set [3]; in data set [4]; at Cytochrome P450 2A6; against Cytochrome P450 2E1) was “Not Active” in each case. For the same molecule, the IC50 entry against Cytochrome P450 2C9 and against B2 bradykinin receptor was “Not Active” in each case. The Ki entry (in data set [3]; in data set [4]; on Cytochrome P450 2A6; at Cytochrome P450 2E1; at Cytochrome P450 2C9) was “Not Active” throughout.

Consider `OC[C@H]1O[C@@H]2O[C@H]3[C@H](O)[C@@H](O)[C@@H](O[C@H]4[C@H](O)[C@@H](O)[C@@H](O[C@H]5[C@H](O)[C@@H](O)[C@@H](O[C@H]6[C@H](O)[C@@H](O)[C@@H](O[C@H]7[C@H](O)[C@@H](O)[C@@H](O[C@H]1[C@H](O)[C@H]2O)O[C@@H]7CO)O[C@@H]6CO)O[C@@H]5CO)O[C@@H]4CO)O[C@@H]3CO` [ALFADEX], for which the IC50 result (in data set [1]; in data set [2]; in data set [3]; in data set [4]; against Cytochrome P450 2A6; against Cytochrome P450 2E1) was “Not Active” throughout. Also, the IC50 result against Cytochrome P450 2C9 and on B2 bradykinin receptor was “Not Active” throughout. The Ki entry (in data set [3]; in data set [4]; on Cytochrome P450 2A6; on Cytochrome P450 2E1; on Cytochrome P450 2C9) was “Not Active” in each case.

Consider `Oc1ncnc2[nH]ncc12` [ALLOPURINOL], for which the IC50 entry (in data set [1]; in data set [2]; in data set [3]; in data set [4]; at Cytochrome P450 2A6; at Cytochrome P450 2E1) was “Not Active” in each case. Besides, the IC50 entry at Cytochrome P450 2C9 and against B2 bradykinin receptor was “Not Active” throughout. Moreover, the Ki entry (in data set [3]; in data set [4]; on Cytochrome P450 2A6; on Cytochrome P450 2E1; on Cytochrome P450 2C9) was “Not Active” each time.
